Source: patent publication US8541379B2 (Ajinomoto Co., Inc., priority 2009, dated 2013)
Starred links: 1 amine or outer side, 2 acyl side, 3 side chain; linkers in the order of their positions; H or OH if unused. Non-standard residues stand in square brackets, D forms with d. No end group written: not given here. γGlu = O=C(O)[C@H](CCC(=O)[*:2])N[*:1]

What was measured:
[1] = Quantitative sensory evaluation test of kokumi-imparting activity; format: in vivo, human; conditions: n=4; for Intensity of kokumi, Initial Taste: scale control 0, strong 3, very strong 5
Protocol: This quantitative sensory evaluation test was carried out according to the following procedures: The intensity of the kokumi-imparting activity observed for each test compound was determined as a value observed when blending 0.00001 to 0.5 g/dL of the corresponding test compound with the distilled water containing sodium glutamate (0.05 g/dL), inosinic acid monophosphate (0.05 g/dL), and sodium chloride (0.5 g/dL). […] The evaluation criteria are assumed to be as follows: control: 0 point; strong: 3 points; very strong: 5 points. Moreover, to clarify the criteria, the initial taste and the middle/after taste of γ-Glu-Val-Gly were set at 3.0 points, respectively. The scoring or rating was carried out using the method of line scale and more specifically, it was carried out by writing each corresponding score on a straight line on which points corresponding to −5˜0˜5 had been indicated. The panelists used in this test were defined to be persons who had been engaged in the development of seasonings for foods over not less than one year of the cumulative time period and who could judge that the difference in the titer between γ-Glu-Cys-Gly and γ-Glu-Val-Gly added to a solution having umami/salty taste is about 10 times (while confirming the ability of these persons at regular intervals). The evaluation was carried out at n (the number of panelists used)=4. The term “initial taste” means the taste which develops from 0 to 2 seconds after the sample is placed in the panelist's mouth, while the term “middle/after taste” means the taste which develops thereafter.
In addition, γ-Glu-Val-Gly, γ-Glu-Cys, γ-Glu-Val, γ-Glu-Ala and γ-Glu-Ser were likewise inspected for their kokumi-imparting effect according to the same procedures used above.

human CaSR = molecular target: T1, human CaSR (Homo sapiens, UniProt P41180, E1011Q); test: Evaluation of CaSR agonist activity (Ca2+ fluorescence, hCaSR-transfected 293E cells); format: cell-based; conditions: 293E cells transfected with hCaSR/pcDNA3.1, Calcium 4 fluorescence, FLEX Station
T1 construct: expressed in transfected cells; host or cells: 293E cells (EBNA1-expressing HEK293, ATCC CRL-10852), transient transfection with Fugene6
T1 sequence (P41180 20-1078 E1011Q): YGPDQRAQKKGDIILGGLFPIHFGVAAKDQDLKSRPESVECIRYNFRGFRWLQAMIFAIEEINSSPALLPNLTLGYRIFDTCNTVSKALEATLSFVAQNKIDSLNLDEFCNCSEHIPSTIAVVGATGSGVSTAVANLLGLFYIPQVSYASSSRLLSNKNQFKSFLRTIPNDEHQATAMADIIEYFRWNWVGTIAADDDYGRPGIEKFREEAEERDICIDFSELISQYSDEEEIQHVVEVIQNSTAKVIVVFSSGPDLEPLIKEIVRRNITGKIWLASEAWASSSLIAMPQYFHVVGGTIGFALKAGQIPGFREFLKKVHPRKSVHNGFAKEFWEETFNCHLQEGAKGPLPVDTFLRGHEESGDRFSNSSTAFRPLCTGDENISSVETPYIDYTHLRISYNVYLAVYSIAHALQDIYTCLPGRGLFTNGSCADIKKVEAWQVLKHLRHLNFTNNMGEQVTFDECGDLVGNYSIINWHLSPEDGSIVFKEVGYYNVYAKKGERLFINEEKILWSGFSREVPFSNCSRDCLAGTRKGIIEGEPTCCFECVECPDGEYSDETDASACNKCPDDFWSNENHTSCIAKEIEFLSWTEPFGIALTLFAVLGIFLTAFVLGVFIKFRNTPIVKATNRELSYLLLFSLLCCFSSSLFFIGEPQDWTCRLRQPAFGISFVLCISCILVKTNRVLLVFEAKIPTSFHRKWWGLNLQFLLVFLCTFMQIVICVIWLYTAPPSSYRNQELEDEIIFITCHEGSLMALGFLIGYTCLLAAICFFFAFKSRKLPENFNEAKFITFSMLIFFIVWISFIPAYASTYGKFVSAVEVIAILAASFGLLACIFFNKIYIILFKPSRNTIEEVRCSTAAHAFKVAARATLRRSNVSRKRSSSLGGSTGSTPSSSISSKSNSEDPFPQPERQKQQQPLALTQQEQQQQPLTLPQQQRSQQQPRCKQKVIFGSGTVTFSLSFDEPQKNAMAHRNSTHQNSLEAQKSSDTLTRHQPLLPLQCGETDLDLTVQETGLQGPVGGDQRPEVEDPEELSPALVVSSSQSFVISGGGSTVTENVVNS
Protocol: 293E Cells (EBNA1-expresion HEK293 cells, ATCC No. CRL-10852) were cultivated in DMEN/Ham's-F12 (3.15/mL glucose-containing Dulbecco's modified Eagle medium, available from Nakaraitesk Company) supplemented with 10% fetal calf serum, in the presence of 200 μg/mL of G418 (available from Genetisin). The cultured cells were inoculated in F25 flask at a density of 3×10^6 cells/10 mL, the flask was allowed to stand over 24 hours in a CO2 incubator (5% CO2, 37° C.), and then the human CaSR-expression plasmid hCaSR/pcDNA3.1 was transformed or transfected with a reagent for transfection Fugene6 (available from Roche Company). The transfected plasmid was maintained in a CO2 incubator for 6 to 7 hours, then the cells were recovered using a 10% fetal calf serum-containing DMEM/Ham's-F12 and the cells were inoculated in each well of a poly-D-lysine coat 96-well plate (BD-Biocoat) at a density of 70,000 cells/well.
To each well of the 96-well plate, each test compound was dissolved in a 0.1% BSA-containing Assay Buffer in an amount of 50 μl/well, and then any change of the intensity of fluorescence was monitored over 3 minutes using FLEX Station (available from Molecular Devices Company).
Method for the Determination of EC50:
The difference (RFU (Max-Min)) between the maximum and minimum fluorescent intensities observed for each well before and after the addition of each specific test compound was determined by the automatic calculation using FLEX Station. The activity rate was calculated while the RFU (Max-Min) value observed when adding the compound at the maximum concentration was defined to be 100% and the RFU (Max-Min) value observed when using the 0.1% BSA-containing Assay Buffer free of any test compound was defined to be 0%, followed by subjecting the resulting data to the curve-fitting procedures using the spreadsheet software Xfit or Graph-Pad-Prism to thus determine the EC50 which was the concentration of the compound at the activity rate of 50%.
In addition, the same EC50-determining procedures used above were repeated except for using other dipeptides as Comparative Examples.

[2] = 0.001 g/dL in water with MSG 0.05, IMP 0.05, NaCl 0.5 g/dL, reference set at 3.0
[3] = 0.01 g/dL in umami/salty solution
[4] = 0.01 g/dL in water with MSG 0.05, IMP 0.05, NaCl 0.5 g/dL
[5] = 0.2 g/dL in water with MSG 0.05, IMP 0.05, NaCl 0.5 g/dL

Compound: [γGlu]-Val-Gly
- Intensity of kokumi, Middle/After Taste [1, 2]: 3.0 points
- Intensity of kokumi, Initial Taste [1, 2]: 3.0 points

Compound: N[C@@H](CCC(=O)N[C@@H](CS)C(=O)O)C(=O)O [γ-Glu-Cys]
- EC50 (human CaSR): 0.16 µM
- Sensory Evaluation Profile [1, 3]: Mainly the middle and after tastes
- Intensity of kokumi, Middle/After Taste [1, 4]: 3.1 points
- Intensity of kokumi, Initial Taste [1, 4]: 3.1 points

Compound: C[C@@H](O)[C@H](NC(=O)CC[C@H](N)C(=O)O)C(=O)O [γ-Glu-Thr]
- EC50 (human CaSR): 6.97 µM

Compound: CC[C@H](NC(=O)CC[C@H](N)C(=O)O)C(=O)O
- EC50 (human CaSR): 0.21 µM

Compound: CCCC[C@H](NC(=O)CC[C@H](N)C(=O)O)C(=O)O [γ-Glu-Nle, γ-L-glutamyl-L-norleucine]
- EC50 (human CaSR): 4.41 µM

Compound: N[C@@H](CCC(=O)N[C@@H](CO)C(=O)O)C(=O)O [γ-Glu-Ser]
- EC50 (human CaSR): 11 µM
- Intensity of kokumi, Middle/After Taste [1, 5]: 3.0 points
- Intensity of kokumi, Initial Taste [1, 5]: 3.6 points

Compound: CC(C)(C)[C@H](NC(=O)CC[C@H](N)C(=O)O)C(=O)O [γ-Glu-tLeu]
- EC50 (human CaSR): 3.06 µM

Compound: C[C@H](NC(=O)CC[C@H](N)C(=O)O)C(=O)O [γ-Glu-Ala]
- EC50 (human CaSR): 1.24 µM
- Sensory Evaluation Profile ([1]; 0.2 g/dL in umami/salty solution): Mainly the tastes similar to the sour
- Intensity of kokumi, Middle/After Taste [1, 5]: 4.3 points
- Intensity of kokumi, Initial Taste [1, 5]: 4.5 points

Compound: CC(C)[C@H](NC(=O)CC[C@H](N)C(=O)O)C(=O)O [γ-Glu-Val]
- EC50 (human CaSR): 1.03 µM
- Sensory Evaluation Profile [1, 3]: The after taste was quite weak.
- Intensity of kokumi, Middle/After Taste [1, 4]: 2.4 points
- Intensity of kokumi, Initial Taste [1, 4]: 3.1 points

Compound: CC(C)(NC(=O)CC[C@H](N)C(=O)O)C(=O)O [γ-Glu-Aib]
- EC50 (human CaSR): 15.4 µM
